# Values quoted from earlier work as cited in patent publication US20210145036A1 (priority 2018, published 2021).
# Details: in vivo
substance,measurement,value
"(1S,5S)-2,6,6-Trimethylbicyclo[3.1.1]hept-2-ene ((−)-α-Pinene)",human pulmonary uptake,60%
